Laboratory results reported in US8524755B2 (priority 2009, dated 2013).

Key:
[1] = [14C]RD162′ radio-HPLC metabolite profile in Pooled Rat Plasma; assay type: in vivo, Sprague Dawley rats; conditions: [14C]RD162′ 100 mg/kg/day oral, day 7, 4 h
Description: The rats were dosed once a day for seven consecutive days; four hours after dosing on the seventh day, plasma was collected from all three rats. The plasma samples were stored at approximately −70° C. or colder.
Positive ion electrospray LC/MS and LC/MS/MS were used to analyze the metabolites.
To prepare the Pooled Rat Plasma for HPLC analysis, approximately 1 g of the plasma sample was combined with acetonitrile (ACN, sample:ACN, 1:3, v:v), vortex mixed, sonicated in cold water, centrifuged, and the supernatants were removed. The extraction was repeated twice and the respective supernatants were combined. […] The combined supernatants were evaporated to dryness and reconstituted in 1 mL of 0.1% formic acid in reverse osmosis (RO) water:ACN: methanol (MeOH, 50:45:5, v:v:v). […] The reconstituted sample was analyzed by HPLC to determine the metabolite profile with fractions collected at 10-second intervals and analyzed by solid scintillation counting.
The prepared samples were analyzed using the following LC/MS/MS conditions: HPLC: Hewlett Packard 1100 series; Mobile Phase: 0.1% formic acid in reverse osmosis water (A) and acetonitrile (B); Column: Agilent Eclipse XDB-C18, 4.6×150 mm, 5 μm; Guard column: Phenomenex Security Guard Cartridge C18, 3×4 mm; Column temperature: 20° C.; Gradient: 20-80% B in 40 min; Flow Rate: 1.5 mL/min.

[2] = target: T1, Androgen Receptor (Homo sapiens, UniProt P10275); experiment: Androgen Receptor Nuclear Translocation Assay; assay type: cell-based; conditions: agonist mode; PathHunter NHRPro cells; 5 h; read-out: AR Nuclear Translocation Assay Agonist Mode EC50
T1 construct: expressed in transfected cells; host or cells: PathHunter NHRPro cell lines
T1 sequence (P10275 1-920): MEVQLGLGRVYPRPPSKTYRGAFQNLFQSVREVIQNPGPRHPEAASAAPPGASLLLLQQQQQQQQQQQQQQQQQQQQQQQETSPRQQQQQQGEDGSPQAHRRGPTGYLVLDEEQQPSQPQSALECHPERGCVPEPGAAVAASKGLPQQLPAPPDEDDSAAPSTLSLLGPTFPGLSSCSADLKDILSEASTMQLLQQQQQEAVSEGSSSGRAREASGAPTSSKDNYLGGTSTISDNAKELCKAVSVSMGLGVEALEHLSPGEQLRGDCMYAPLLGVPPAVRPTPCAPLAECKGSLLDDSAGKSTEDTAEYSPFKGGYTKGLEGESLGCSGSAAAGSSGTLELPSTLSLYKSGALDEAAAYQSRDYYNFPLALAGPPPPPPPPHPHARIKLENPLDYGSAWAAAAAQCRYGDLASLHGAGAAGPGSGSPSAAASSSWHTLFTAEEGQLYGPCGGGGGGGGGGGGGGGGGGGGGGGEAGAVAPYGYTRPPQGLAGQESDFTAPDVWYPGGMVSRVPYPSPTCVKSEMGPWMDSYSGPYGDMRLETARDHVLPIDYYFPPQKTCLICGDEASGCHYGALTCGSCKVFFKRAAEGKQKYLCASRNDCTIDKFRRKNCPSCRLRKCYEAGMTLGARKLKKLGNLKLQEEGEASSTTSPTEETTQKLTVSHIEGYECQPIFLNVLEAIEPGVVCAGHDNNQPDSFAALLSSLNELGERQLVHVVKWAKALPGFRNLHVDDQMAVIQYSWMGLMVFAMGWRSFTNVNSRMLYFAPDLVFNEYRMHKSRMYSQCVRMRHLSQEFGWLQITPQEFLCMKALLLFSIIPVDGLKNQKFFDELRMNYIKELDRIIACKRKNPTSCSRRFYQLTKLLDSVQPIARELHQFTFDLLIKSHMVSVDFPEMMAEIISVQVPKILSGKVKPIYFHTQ
Description: Once it was established that the cells were healthy and growing normally, cells were transferred from flasks using trypsin-free cell dissociation buffer and seeded into white walled clear bottom 384-well microplates for compound profiling. For profiling, cells were seeded at a density of 10,000 cells per well in a total volume of 50 μL and were allowed to adhere and recover overnight prior to compound addition. Media contained charcoal-dextran filtered serum to reduce the level of hormones present.
Agonist Format: Intermediate dilution of compound stocks were generated such that 5.5 μL of 10X compound could be added to each well with a final DMSO concentration of 1% of total volume. For profiling compound in agonist mode, the cells were incubated in the presence of compound at 37° C. for 5 h.
Antagonist Format: Agonist dose curves were performed to determine the EC80 value for the following antagonist testing with compounds. 5.5 μL of 10× agonist was added to each well with an equal concentration of vehicle present. EC80 agonist concentration was determined directly from agonist dose curve. For antagonist determination, cells were pre-incubated with antagonist followed by agonist challenge at the EC80 concentration: 5.5 μL of 10× compound added to cells and incubated at 37° C. for 1 h; 5.5 μL of 11× EC80 agonist added to cells and incubated at 37° C. for 5 h.
Signal Detection: After appropriate compound incubation, assay signal was generated through a single addition of 30 μL (50% v/v) of PathHunter Detection reagent cocktail for agonist and antagonist assays respectively followed by 1 h incubation at room temperature. Microplates were read following signal generation with a PerkinElmer ViewLux™ instrument for chemiluminescent signal detection.
Data Analysis: Dose curves in the presence and absence of compound were plotted using GraphPad Prism.

**Q.** For `CC1(C)C(=O)N(c2ccc(C#N)c(C(F)(F)F)c2)C(=O)N1c1ccc(C(=O)O)c(F)c1` [(MV), 4-(3-(4-cyano-3-(trifluoromethyl)phenyl)-5,5-dimethyl-2,4-dioxoimidazolidin-1-yl)-2-fluorobenzoic acid], which “% Injected Radioactivity (%)” value [1] is on record?
**A.** Its value is 5.76%.

**Q.** What about the “% Recovered Radioactivity (%)” value [1] of the same compound?
**A.** Its value is 9.05%.

**Q.** What about the “Peak Area (mV)” value [1] of the same compound?
**A.** The value was 308 mV.

**Q.** And the “Peak Height (mV)” value [1]?
**A.** The value was 49 mV.

**Q.** For Norgesterol [reference compound], which EC50 [2] is on record?
**A.** Its EC50 is 2.9 nM.
